Assay results as given in ChEMBL document CHEMBL1129838, “Synthesis and pharmacological evaluation of sulfone substituted HIV protease inhibitors” (Bioorg Med Chem Lett, 1997).
“And” between values parts separate entries of the source, which are not always exact repeats. Equal values may be shown once.

What was measured:
[1] = test system: Human immunodeficiency virus 1; experiment: Antiviral activity against HIV-1 IIIB in H9 (human leukemia) cells.; type: functional, organism-based
[2] = target: Human immunodeficiency virus type 1 protease (Human immunodeficiency virus 1, UniProt Q72874); experiment: Inhibition of HIV-1 protease.
[3] = Human immunodeficiency virus 1, H9

| SMILES | IC50 [1, 3] [nM] | IC50 ([1]; h9) | Ki [2] [nM] |
| --- | --- | --- | --- |
| O=c1c2c(oc(O)c1C(c1cccc(NS(=O)(=O)c3ccccc3)c1)C1CC1)CCCCCC2 (centres undefined) | 5000 |  |  |
| Cn1ccnc1S(=O)(=O)Nc1cccc(C(c2c(O)cc(C(CC3CC3)CC3CC3)oc2=O)C2CC2)c1 (centres undefined) |  | > 1000 nM and < 3000 nM | 0.73 |
| O=c1c2c(oc(O)c1C(c1cccc(CS(=O)(=O)c3ccccn3)c1)C1CC1)CCCCCC2 (centres undefined) | 10000 |  | 1.9 |
| N#Cc1ccc(S(=O)(=O)Nc2cccc(C(c3c(O)c4c(oc3=O)CCCCCC4)C3CC3)c2)cc1 (centres undefined) | 1500 |  |  |
| O=C(O)c1ccc(S(=O)(=O)Nc2cccc(C(c3c(O)c4c(oc3=O)CCCCCC4)C3CC3)c2)cc1 (centres undefined) | > 10000 |  |  |
| O=c1c2c(oc(O)c1C(c1cccc(NS(=O)(=O)c3ccccn3)c1)C1CC1)CCCCCC2 (centres undefined) | < 1000 |  | 0.86 |
| Cn1ccnc1S(=O)(=O)Nc1cccc(C(c2c(O)c3c(oc2=O)CCCCCC3)C2CC2)c1 (centres undefined) | > 3000 |  | 1.1 |
| O=c1cc(C(CC2CC2)CC2CC2)oc(O)c1C(c1cccc(CS(=O)(=O)c2ccccn2)c1)C1CC1 (centres undefined) | 7700 |  | 2.3 |
| O=c1cc(C(CC2CC2)CC2CC2)oc(O)c1C(c1cccc(NS(=O)(=O)c2ccc(F)cc2)c1)C1CC1 (centres undefined) | 2200 |  |  |
| Cn1ccnc1S(=O)(=O)Cc1cccc(C(c2c(O)cc(C(CC3CC3)CC3CC3)oc2=O)C2CC2)c1 (centres undefined) | 12000 |  | 3.1 |
| O=c1cc(C(CC2CC2)CC2CC2)oc(O)c1C(c1cccc(CS(=O)(=O)c2ccc(F)cc2)c1)C1CC1 (centres undefined) | 19800 |  | 19 |
| O=c1cc(C(CC2CC2)CC2CC2)oc(O)c1C(c1cccc(NS(=O)(=O)c2ccccn2)c1)C1CC1 (centres undefined) |  | > 1000 nM and < 3000 nM | 0.66 |
| O=c1c2c(oc(O)c1C(c1cccc(NS(=O)(=O)c3ccc(F)cc3)c1)C1CC1)CCCCCC2 (centres undefined) | 2100 |  |  |

The next lines start with the values.

| IC50 [1, 3] [nM] | IC50 ([1]; h9) | Ki [2] [nM] | SMILES |
| --- | --- | --- | --- |
| 20500 |  | 1.9 | N#Cc1ccc(S(=O)(=O)Cc2cccc(C(c3c(O)oc4c(c3=O)CCCCCC4)C3CC3)c2)cc1 (centres undefined) |
| 14500 |  | 2.1 | O=c1c2c(oc(O)c1C(c1cccc(CS(=O)(=O)c3ccc(F)cc3)c1)C1CC1)CCCCCC2 (centres undefined) |
| 3600 |  |  | Cc1ccc(S(=O)(=O)Nc2cccc(C(c3c(O)c4c(oc3=O)CCCCCC4)C3CC3)c2)cc1 (centres undefined) |
| > 30000 |  | 7 | O=C(O)c1ccc(S(=O)(=O)Cc2cccc(C(c3c(O)c4c(oc3=O)CCCCCC4)C3CC3)c2)cc1 (centres undefined) |
| > 30000 |  | 4.1 | Cc1ccc(S(=O)(=O)Cc2cccc(C(c3c(O)c4c(oc3=O)CCCCCC4)C3CC3)c2)cc1 (centres undefined) |
| 20400 |  | 3 | Cn1ccnc1S(=O)(=O)Cc1cccc(C(c2c(O)c3c(oc2=O)CCCCCC3)C2CC2)c1 (centres undefined) |
| > 30000 |  | 6 | O=c1c2c(oc(O)c1C(c1cccc(CS(=O)(=O)c3ccccc3)c1)C1CC1)CCCCCC2 (centres undefined) |
